Series [1] deals with LPS-induced nitric oxide production in RAW264.7 cells. The experiment in a line: LPS-induced NO production, Griess Reagent assay. It counts as cell-based, mouse. Particulars: Mus musculus; for IC50: LPS (0.5 μg/mL) 24 h; for inhibition at 10 µM: compounds 10 μM, 1 h, then LPS (0.5 μg/mL) 24 h, read-out: Inhibition rate±SD (%) against NO production. As for the experimental part:
RAW264.7 cells (7 × 10^4 cells/well) were seeded into 48-well plate and used for experiments after 24 h. […] After 24 h collect cell supernatant, NO production was measured using Griess Reagent assay (Beyotime). Griess reagent were mixed at a ratio of 1:1, and reacted at room temperature for 15 min. Measurement of absorbance at […] with enzyme reader. At least three independent experiments were performed for the determination of IC50 values, which were shown as mean ± SD. All experimental data were analysed by using GraphPad Prism software, version 8.0 (GraphPad Inc.).
(In general: Nitrite, measured by Griess reagent, commonly stands in for NO production.)

Series [2] can be described thus: Cell viability assay (MTT), RAW264.7. The settings on record: mouse, RAW264.7 cells, read-out: Cytotoxicity IC50 with RAW264.7. The series is classed as cell-based, mouse. As for the experimental part: RAW264.7 cells (1 × 10^4 cells/well) were seeded into 96-well plate and used for experiments after 24 h. Compounds (4 µM, 20 µM and 100 µM) treated cell for 24 h. Forty microliters of MTT solution (5 mg/mL, Sigma-Aldrich) was then added and incubated for an additional 4 h. After 4 h, cell culture supernatants were removed and DMSO (150 µL) was added into per well for dissolving the resulting crystals. Shaking about 1 0 ∼ 15 min and the absorbance at 492 nm was measured by a microplate reader (MQX200, Bio-Tek, Winooski, VT). At least three independent experiments were performed for the determination of IC50 values, which were shown as mean ± SD. All experimental data were analysed by using GraphPad Prism software, version 8.0 (GraphPad Inc.).

The nature of series [3]: Cell viability assay (MTT), LO2. It counts as cell-based. The settings on record: human, LO2 cells, read-out: Cytotoxicity IC50 with LO2.

`Cc1ccc(-c2cc(C(F)(F)F)nn2-c2ccc(S(N)(=O)=O)cc2)cc1` [Cel, Celecoxib, reference compound]: the IC50 (usually the concentration at which inhibition is half-maximal) in series [1] is more than 10 µM. In series [1], the inhibition – broadly, the share of the control response that was lost under treatment – at 10 µM turned out to be 30.1 ± 2.33%. For the same compound, the IC50 at 24 h in series [2] and in series [3] was more than 100 µM each time.
Consider `CNC(=O)Nc1cc(C(C)=O)c(O)cc1OC` [Compound A1, 1–(5-acetyl-4-hydroxy-2-methoxyphenyl)-3-methylurea], for which the melting point (commonly the temperature, or range, at which the solid turns liquid) was in the range of 211 to 213 °C. For the same compound, in series [1], the IC50 was more than 10 µM and the inhibition at 10 µM came to 20.1 ± 6.12%. Moreover, the IC50 at 24 h in series [2] was more than 100 µM. The IC50 at 24 h in series [3] was more than 100 µM.
In the case of `CCN(CC)C(=O)Nc1cc(C(C)=O)c(O)cc1OC` [Compound A2, 3–(5-acetyl-4-hydroxy-2-methoxyphenyl)-1,1-diethylurea], the melting point is 132 to 134 °C. Also, in series [1], the IC50 was more than 10 µM and the inhibition at 10 µM came out at 30.2 ± 4.89%. The IC50 at 24 h in series [2] was more than 100 µM. Further, the IC50 at 24 h in series [3] was more than 100 µM.
For `COc1cc(O)c(C(C)=O)cc1NC(=O)N(C(C)C)C(C)C` [Compound A3, 3–(5-acetyl-4-hydroxy-2-methoxyphenyl)-1,1-diisopropylurea], the melting point lay in the range of 148 to 149 °C. Besides, in series [1], the IC50 was more than 10 µM and the inhibition at 10 µM turned out to be 15.4 ± 3.15%. Also, the IC50 at 24 h in series [2] is more than 100 µM. The IC50 at 24 h in series [3] was more than 100 µM.
`CONC(=O)Nc1cc(C(C)=O)c(O)cc1OC` [Compound A4, 1–(5-acetyl-4-hydroxy-2-methoxyphenyl)-3-methoxyurea] returned a melting point of 176 to 177 °C. Besides, in series [1], the IC50 was more than 10 µM and the inhibition at 10 µM worked out at 15.2 ± 4.18%. Also, the IC50 at 24 h in series [2] is more than 100 µM. In addition, the IC50 at 24 h in series [3] is more than 100 µM.
`COc1cc(O)c(C(C)=O)cc1NC(=O)NCC(F)(F)F` [Compound A5, 1–(5-acetyl-4-hydroxy-2-methoxyphenyl)-3–(2,2,2-trifluoroethyl) urea] showed a melting point of 232 to 234 °C. Besides, in series [1], the IC50 is more than 10 µM and the inhibition at 10 µM worked out at 23.1 ± 3.25%. Besides, the IC50 at 24 h in series [2] is more than 100 µM. The IC50 at 24 h in series [3] is more than 100 µM.
`CCNC(=O)Nc1cc(C(C)=O)c(O)cc1OC` [Compound A6, 1–(5-acetyl-4-hydroxy-2-methoxyphenyl)-3-ethylurea] had a melting point of 211 to 212 °C. Moreover, in series [1], the IC50 is more than 10 µM and the inhibition at 10 µM worked out at 16.2 ± 6.01%. For the same compound, the IC50 at 24 h in series [2] is more than 100 µM. Also, the IC50 at 24 h in series [3] was more than 100 µM.
`COc1cc(O)c(C(C)=O)cc1NC(=O)N(C)C` [Compound A7, 3–(5-acetyl-4-hydroxy-2-methoxyphenyl)-1,1-dimethylurea] showed a melting point of 176 to 177 °C. Besides, in series [1], the IC50 is more than 10 µM and the inhibition at 10 µM amounted to 33.7 ± 5.02%. Also, the IC50 at 24 h in series [2] was more than 100 µM. For the same compound, the IC50 at 24 h in series [3] is more than 100 µM.
Consider `COc1cc(O)c(C(C)=O)cc1NC(=O)NC(C)(C)C` [Compound A8, 1–(5-acetyl-4-hydroxy-2-methoxyphenyl)-3-(tert-butyl) urea], for which, in series [1], the IC50 was more than 10 µM and the inhibition at 10 µM worked out at 12.3 ± 4.12%. In addition, the IC50 at 24 h in series [2] was more than 100 µM. For the same compound, the IC50 at 24 h in series [3] is more than 100 µM.
Turning to `COc1cc(O)c(C(C)=O)cc1NC(=O)NC1CC1` [Compound A9, 1–(5-acetyl-4-hydroxy-2-methoxyphenyl)-3-cyclopropylurea], the melting point is 191 to 192 °C. Also, in series [1], the IC50 is more than 10 µM and the inhibition at 10 µM came out at 41 ± 3.15%. The IC50 at 24 h in series [2] is more than 100 µM. Besides, the IC50 at 24 h in series [3] was more than 100 µM.
The compound `COc1cc(O)c(C(C)=O)cc1NC(=O)N1CCN(C)CC1` [Compound A10, N-(5-acetyl-4-hydroxy-2-methoxyphenyl)-4-methylpiperazine-1-carboxamide] yielded a melting point of 141 to 142 °C. In series [1], the IC50 was more than 10 µM and the inhibition at 10 µM was determined as 26 ± 5.12%. Also, in series [2], the IC50 at 24 h is more than 100 µM. In addition, the IC50 at 24 h in series [3] is more than 100 µM.
Compound `COc1cc(O)c(C(C)=O)cc1NC(=O)N1CCOCC1` [Compound A11, N-(5-acetyl-4-hydroxy-2-methoxyphenyl) morpholine-4-carboxamide] gave a melting point of 220 to 221 °C. Also, in series [1], the IC50 is more than 10 µM and the inhibition at 10 µM stood at 29.8 ± 3.74%. Besides, the IC50 at 24 h in series [2] was more than 100 µM. The IC50 at 24 h in series [3] is more than 100 µM.
Turning to `COc1cc(O)c(C(C)=O)cc1NC(=O)N1CCCC1` [Compound A12, N-(5-acetyl-4-hydroxy-2-methoxyphenyl) pyrrolidine-1-carboxamide], the melting point is 118 to 120 °C. Further, in series [1], the IC50 was more than 10 µM and the inhibition at 10 µM turned out to be 32.1 ± 4.17%. In addition, in series [2], the IC50 at 24 h was more than 100 µM. The IC50 at 24 h in series [3] was more than 100 µM.
`CCN1CCN(C(=O)Nc2cc(C(C)=O)c(O)cc2OC)CC1` [Compound A13, N-(5-acetyl-4-hydroxy-2-methoxyphenyl)-4-ethylpiperazine-1-carboxamide] yielded a melting point of 125 to 126 °C. Further, in series [1], the IC50 was more than 10 µM and the inhibition at 10 µM was 35.1 ± 2.87%. Besides, the IC50 at 24 h in series [2] is more than 100 µM. In series [3], the IC50 at 24 h is more than 100 µM.
In turn, `COc1cc(O)c(C(C)=O)cc1NC(=O)N1CCSC1` [Compound A14, N-(5-acetyl-4-hydroxy-2-methoxyphenyl) thiazolidine-3-carboxamide] yielded a melting point of 172 to 174 °C. In addition, in series [1], the half-maximal inhibitory concentration (IC50) was more than 10 µM and the inhibition at 10 µM was determined as 24.1 ± 5.16%. Besides, in series [2], the IC50 at 24 h is more than 100 µM. In addition, the IC50 at 24 h in series [3] is more than 100 µM.
As for `COc1cc(O)c(C(C)=O)cc1NC(=O)Nc1ccccc1` [Compound B1, 1–(5-acetyl-4-hydroxy-2-methoxyphenyl)-3-phenylurea], in series [1], the IC50 was 9.45 µM and the inhibition at 10 µM stood at 51 ± 3.25%. Further, the IC50 at 24 h in series [2] was more than 100 µM. Also, the IC50 at 24 h in series [3] was more than 100 µM.
In turn, `COc1cc(O)c(C(C)=O)cc1NC(=O)Nc1cccc(C)c1` [Compound B2, 1–(5-acetyl-4-hydroxy-2-methoxyphenyl)-3-(m-tolyl) urea] displayed a melting point of 209 to 210 °C. Also, in series [1], the IC50 was more than 10 µM and the inhibition at 10 µM came out at 48.7 ± 5.49%. Besides, in series [2], the IC50 at 24 h is more than 100 µM. Also, in series [3], the IC50 at 24 h was more than 100 µM.
For the compound `COc1cc(O)c(C(C)=O)cc1NC(=O)Nc1cccc(F)c1` [Compound B5, 1–(5-acetyl-4-hydroxy-2-methoxyphenyl)-3–(3-fluorophenyl) urea], in series [1], the IC50 is 6.22 µM and the inhibition at 10 µM is 63 ± 3.87%. Moreover, the IC50 at 24 h in series [2] was more than 100 µM. Further, in series [3], the IC50 at 24 h was more than 100 µM.
As for `COc1cccc(NC(=O)Nc2cc(C(C)=O)c(O)cc2OC)c1` [Compound B8, 1–(5-acetyl-4-hydroxy-2-methoxyphenyl)-3–(3-methoxyphenyl) urea], in series [1], inhibition was half-maximal at 4.7 µM (IC50) and the inhibition at 10 µM was determined as 74.7 ± 6.15%. In addition, the IC50 at 24 h in series [2] is more than 100 µM. Besides, the IC50 at 24 h in series [3] is more than 100 µM.
For `COc1cc(O)c(C(C)=O)cc1NC(=O)Nc1ccc(C(F)(F)F)cc1` [Compound B11, 1–(5-acetyl-4-hydroxy-2-methoxyphenyl)-3–(4-(trifluoromethyl)phenyl) urea], in series [1], the IC50 turned out to be 5.08 µM and the inhibition at 10 µM came out at 60.9 ± 4.12%. In addition, the IC50 at 24 h in series [2] was more than 100 µM. Besides, the IC50 at 24 h in series [3] was more than 100 µM.
As for `COc1cc(O)c(C(C)=O)cc1NC(=O)NCc1ccccc1Cl` [Compound C1, 1–(5-acetyl-4-hydroxy-2-methoxyphenyl)-3–(2-chlorobenzyl) urea], in series [1], the half-maximal inhibitory concentration (IC50) was more than 10 µM and the inhibition at 10 µM is 33.7 ± 6.15%. The IC50 at 24 h in series [2] was more than 100 µM. In addition, the IC50 at 24 h in series [3] is more than 100 µM.
`COc1ccccc1CNC(=O)Nc1cc(C(C)=O)c(O)cc1OC` [Compound C6, 1–(5-acetyl-4-hydroxy-2-methoxyphenyl)-3–(2-methoxybenzyl) urea] returned an IC50 in series [1] of more than 10 µM. In addition, in series [1], the inhibition at 10 µM was determined as 8.12 ± 6.12%. In addition, the IC50 at 24 h in series [2] and in series [3] was more than 100 µM throughout.
The compound `COc1cc(O)c(C(C)=O)cc1NC(=O)NCCc1ccccc1` [Compound D1, 1–(5-acetyl-4-hydroxy-2-methoxyphenyl)-3-phenethylurea] yielded an IC50 in series [1] of more than 10 µM. In addition, the inhibition at 10 µM in series [1] is 15.3 ± 5.12%. Further, the IC50 at 24 h in series [2] and in series [3] was more than 100 µM each time.
For the compound `COc1cc(O)c(C(C)=O)cc1NC(=O)NCCc1ccccc1F` [Compound D4, 1–(5-acetyl-4-hydroxy-2-methoxyphenyl)-3–(2-fluorophenethyl)urea], the concentration for half-maximal inhibition (IC50) in series [1] is more than 10 µM. For the same compound, in series [1], the inhibition at 10 µM was 17.7 ± 2.15%. Besides, the IC50 at 24 h in series [2] and in series [3] was more than 100 µM in each case.

Source of the values: paper PMC8890542, “Discovery of novel paeonol-based derivatives against skin inflammation in vitro and in vivo” (Journal of Enzyme Inhibition and Medicinal Chemistry, 2022).
